These compounds were tested against T1, FGFR2 (Homo sapiens, UniProt P21802) (assay: FGFR2 Kinase Protocol - Condition 1 (Reaction Biology HotSpot radiometric kinase assay)). Details: 20-min incubation of compound with kinase before ATP; poly[Glu:Tyr] (4:1) 0.2 mg/ml; ATP 100 micromolar; 2 hr room temperature.
Type: biochemical
Procedure: Example 1: FGFR2 Kinase Protocol—Condition 1
The Reaction Biology HotSpot assay platform (http://www.reactionbiology.com) was used to measure kinase/inhibitor interactions as described previously (Anastassiadis et al., 2011). In brief, for each reaction, kinase and substrate were mixed in a buffer containing 20 mM HEPES (pH 7.5), 10 mM MgCl2, 1 mM EGTA, 0.02% Brij35, 0.02 mg/mL BSA, 0.1 mM Na3VO4, 2 mM DTT, and 1% DMSO. All compounds were in powder form and freshly solubilized in DMSO for assays. Compounds were then added to each reaction mixture via acoustic dispense using an ECHO 550 nanoliter dispenser. For Human FGFR2 wildtype testing, a peptide substrate, poly[Glu:Tyr] (4:1) was used to promote the reaction at a concentration of 0.2 mg/ml. For Human FGFR2 (V564F) testing, a peptide substrate, poly[Glu:Tyr] (4:1) was used to promote the reaction at a concentration of 0.2 mg/ml. ATP concentration for all assays was maintained at 100 micromolar. Compounds were tested in 10-dose IC50 mode with a 3-fold serial dilution. After a 20-min incubation, ATP (Sigma-Aldrich, St. Louis, MO 63178) and [g33P] ATP (specific activity 10 microCi/microliter) purchased at PerkinElmer (Boston, MA, 02118 Cat #BLU 003H250UC) were added at a final total concentration of […]. Reactions were carried out at room temperature for 2 hr and spotted onto P81 ion exchange cellulose chromatography paper (Reaction Biology). Filter paper was washed in 0.75% phosphoric acid to remove unincorporated ATP. The percent remaining kinase activity relative to a vehicle-containing (DMSO) kinase reaction was calculated for each kinase/inhibitor pair. IC50 values were calculated using Dotmatics Knowledge Solutions Studies curve fitting (Dotmatics, Bishops Stortford, UK, CM23).

T1 sequence (P21802 22-821): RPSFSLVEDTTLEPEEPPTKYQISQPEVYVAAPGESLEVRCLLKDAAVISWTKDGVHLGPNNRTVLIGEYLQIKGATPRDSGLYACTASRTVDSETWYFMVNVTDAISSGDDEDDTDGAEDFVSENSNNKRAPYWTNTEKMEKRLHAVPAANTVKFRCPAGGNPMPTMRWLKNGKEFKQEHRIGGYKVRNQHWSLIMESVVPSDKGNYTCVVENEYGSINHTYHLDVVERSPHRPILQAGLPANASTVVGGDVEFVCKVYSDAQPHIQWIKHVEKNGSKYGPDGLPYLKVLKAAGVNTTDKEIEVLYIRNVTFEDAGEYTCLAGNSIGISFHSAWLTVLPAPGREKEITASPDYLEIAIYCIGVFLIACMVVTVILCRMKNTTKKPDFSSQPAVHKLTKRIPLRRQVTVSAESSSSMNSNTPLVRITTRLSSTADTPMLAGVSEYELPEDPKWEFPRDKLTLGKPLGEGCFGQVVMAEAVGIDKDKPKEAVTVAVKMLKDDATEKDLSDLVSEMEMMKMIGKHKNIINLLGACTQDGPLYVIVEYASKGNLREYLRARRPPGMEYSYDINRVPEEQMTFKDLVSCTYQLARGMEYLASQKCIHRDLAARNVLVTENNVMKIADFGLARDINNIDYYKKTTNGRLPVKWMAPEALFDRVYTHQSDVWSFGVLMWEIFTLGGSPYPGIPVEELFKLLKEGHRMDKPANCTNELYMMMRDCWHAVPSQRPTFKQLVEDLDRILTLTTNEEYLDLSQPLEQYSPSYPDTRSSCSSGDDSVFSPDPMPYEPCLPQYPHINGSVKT

Compound | IC50 [nM]
C=CC(=O)N1C[C@@H](n2nc(C#Cc3ccc4[nH]c(C)nc4c3)c3c(N)ncnc32)C[C@@H]1COC [Example 1, 1-((2R,4S)-4-(4-amino-3-((2-methyl-1H-benzo[d]imidazol-5-yl)ethynyl)-1H-pyrazolo[3,4-d]pyrimidin-1-yl)-2-(methoxymethyl)pyrrolidin-1-yl)prop-2-en-1-one] | ≤ 100
C=CC(=O)N1C[C@@H](n2nc(C#Cc3ccc4[nH]ncc4c3)c3c(N)ncnc32)C[C@@H]1COC [Example 2, 1-((2R,4S)-4-(3-((1H-indazol-5-yl)ethynyl)-4-amino-1H-pyrazolo[3,4-d]pyrimidin-1-yl)-2-(methoxymethyl)pyrrolidin-1-yl)prop-2-en-1-one] | ≤ 100
C=CC(=O)N1C[C@@H](n2nc(C#Cc3ccc4nc(C)n(C)c4c3)c3c(N)ncnc32)C[C@@H]1COC [Example 4, 1-((2R,4S)-4-(4-amino-3-((1,2-dimethyl-1H-benzo[d]imidazol-6-yl)ethynyl)-1H-pyrazolo[3,4-d]pyrimidin-1-yl)-2-(methoxymethyl)pyrrolidin-1-yl)prop-2-en-1-one] | ≤ 100
C=CC(=O)N1C[C@@H](n2nc(C#Cc3ccc4[nH]cnc4c3)c3c(N)ncnc32)C[C@@H]1COC [Example 5, 1-((2R,4S)-4-(3-((1H-benzo[d]imidazol-5-yl)ethynyl)-4-amino-1H-pyrazolo[3,4-d]pyrimidin-1-yl)-2-(methoxymethyl)pyrrolidin-1-yl)prop-2-en-1-one] | ≤ 100
C=CC(=O)N1C[C@@H](n2nc(C#Cc3ccc4c(c3)ncn4C)c3c(N)ncnc32)C[C@@H]1COC [Example 6, 1-((2R,4S)-4-(4-amino-3-((1-methyl-1H-benzo[d]imidazol-5-yl)ethynyl)-1H-pyrazolo[3,4-d]pyrimidin-1-yl)-2-(methoxymethyl)pyrrolidin-1-yl)prop-2-en-1-one] | ≤ 100
C=CC(=O)N1CC[C@H](n2nc(C#Cc3ccc4[nH]c(C)nc4c3)c3c(N)ncnc32)C1 [Example 7, (S)-1-(3-(4-amino-3-((2-methyl-1H-benzo[d]imidazol-5-yl)ethynyl)-1H-pyrazolo[3,4-d]pyrimidin-1-yl)pyrrolidin-1-yl)prop-2-en-1-one] | ≤ 100
C=CC(=O)N1C[C@@H](n2cc(C#Cc3ccc4nc(C)[nH]c4c3)c3c(N)ncnc32)C[C@@H]1COC [Example 8, 1-[(2R,4S)-4-[4-amino-5-[2-(2-methyl-3H-1,3-benzodiazol-5-yl)ethynyl]pyrrolo[2,3-d]pyrimidin-7-yl]-2-(methoxymethyl)pyrrolidin-1-yl]prop-2-en-1-one] | ≤ 100
C=CC(=O)N1C[C@@H](n2nc(C#Cc3ccc4ncn(C)c4c3)c3c(N)ncnc32)C[C@@H]1COC [Example 9, 1-((2R,4S)-4-(4-amino-3-((1-methyl-1H-benzo[d]imidazol-6-yl)ethynyl)-1H-pyrazolo[3,4-d]pyrimidin-1-yl)-2-(methoxymethyl)pyrrolidin-1-yl)prop-2-en-1-one] | 100 to 1000
C=CC(=O)N1C[C@@H](n2nc(C#Cc3ccc4[nH]nnc4c3)c3c(N)ncnc32)C[C@@H]1COC [Example 10, 1-((2R,4S)-4-(3-((1H-benzo[d][1,2,3]triazol-5-yl)ethynyl)-4-amino-1H-pyrazolo[3,4-d]pyrimidin-1-yl)-2-(methoxymethyl)pyrrolidin-1-yl)prop-2-en-1-one] | ≤ 100

These compounds were tested against T1, FGFR2 (assay: FGFR2 Kinase Protocol - Condition 2 (Reaction Biology HotSpot radiometric kinase assay, no preincubation)). Details: poly[Glu:Tyr] (4:1) 0.2 mg/ml, ATP 100 microM, 2 hr room temperature.
Type: biochemical
How it was run: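 Radiometric HotSpot format: FGFR2 (wildtype or V564F) with poly[Glu:Tyr] (4:1) at 0.2 mg/ml in HEPES pH 7.5 buffer with 1% DMSO; ATP plus [γ33P]ATP at 100 µM total, added without preincubation. Reactions ran 2 hr at room temperature, then filter-bound. IC50 from 10-dose, 3-fold series versus DMSO control.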

Compound | IC50 [nM]
C=CC(=O)N1CC[C@H](n2nc(C#Cc3cc4ncn(C5CC5)c4cc3Cl)c3c(N)ncnc32)C1 [Example 191, 1-[(3S)-3-{4-Amino-3-[2-(6-chloro-1-cyclopropyl-1,3-benzodiazol-5-yl)ethynyl]pyrazolo[3,4-d]pyrimidin-1-yl}pyrrolidin-1-yl]prop-2-en-1-one] | ≤ 100
C=CC(=O)N1CC[C@H](n2nc(C#Cc3cc4nc(C)n(C)c4cc3F)c3c(N)ncnc32)C1 [Example 192, 1-[(3S)-3-{4-Amino-3-[2-(6-fluoro-1,2-dimethyl-1,3-benzodiazol-5-yl)ethynyl]pyrazolo[3,4-d]pyrimidin-1-yl}pyrrolidin-1-yl]prop-2-en-1-one] | ≤ 100
C=CC(=O)N1CC[C@H](n2nc(C#Cc3ccc4c(c3)ncn4C3CC3)c3c(N)ncnc32)C1 [Example 193, 1-[(3S)-3-{4-Amino-3-[2-(1-cyclopropyl-1,3-benzodiazol-5-yl)ethynyl]pyrazolo[3,4-d]pyrimidin-1-yl}pyrrolidin-1-yl]prop-2-en-1-one] | ≤ 100
C=CC(=O)N1CC[C@H](n2nc(C#Cc3cc4ncn(C5CC5)c4c(F)c3F)c3c(N)ncnc32)C1 [Example 194, 1-[(3S)-3-{4-Amino-3-[2-(1-cyclopropyl-6,7-difluoro-1,3-benzodiazol-5-yl)ethynyl]pyrazolo[3,4-d]pyrimidin-1-yl}pyrrolidin-1-yl]prop-2-en-1-one] | ≤ 100
C=CC(=O)N1CC[C@H](n2nc(C#Cc3c(F)cc4c(ncn4C4CC4)c3F)c3c(N)ncnc32)C1 [Example 195, 1-[(3S)-3-{4-Amino-3-[2-(1-cyclopropyl-4,6-difluoro-1,3-benzodiazol-5-yl)ethynyl]pyrazolo[3,4-d]pyrimidin-1-yl}pyrrolidin-1-yl]prop-2-en-1-one] | ≤ 100
C=CC(=O)N1C[C@@H](n2nc(C#Cc3cc4ncn(C5CC5)c4cc3F)c3c(N)ncnc32)C[C@@H]1COC(F)F [Example 196, 1-((2R,4S)-4-(4-Amino-3-((1-cyclopropyl-6-fluoro-1H-benzo[d]imidazol-5-yl)ethynyl)-1H-pyrazolo[3,4-d]pyrimidin-1-yl)-2-((difluoromethoxy)methyl)pyrrolidin-1-yl)prop-2-en-1-one] | ≤ 100
C=CC(=O)N1C[C@@H](n2nc(C#Cc3cc4ncn(C5CC5)c4cc3F)c3c(N)ncnc32)C[C@@H]1CF [Example 197, 1-((2R,4S)-4-(4-Amino-3-((1-cyclopropyl-6-fluoro-1H-benzo[d]imidazol-5-yl)ethynyl)-1H-pyrazolo[3,4-d]pyrimidin-1-yl)-2-(fluoromethyl)pyrrolidin-1-yl)prop-2-en-1-one] | ≤ 100
C=CC(=O)N1C[C@@H](c2nc(C#Cc3cc4ncn(C5CC5)c4cc3F)c3c(N)ncnn23)C[C@@H]1COC [Example 199, 1-[(2R,4S)-4-{4-Amino-5-[2-(1-cyclopropyl-6-fluoro-1,3-benzodiazol-5-yl)ethynyl]imidazo[4,3-f][1,2,4]triazin-7-yl}-2-(methoxymethyl)pyrrolidin-1-yl]prop-2-en-1-one] | ≤ 100
C=CC(=O)N1CC[C@H](c2nc(C#Cc3cc4ncn(C5CC5)c4cc3F)c3c(N)nccn23)C1 [Example 201, 1-[(3 S)-3-{8-Amino-1-[2-(1-cyclopropyl-6-fluoro-1,3-benzodiazol-5-yl)ethynyl]imidazo[1,5-a]pyrazin-3-yl}pyrrolidin-1-yl]prop-2-en-1-one] | 100 to 1000
C=CC(=O)N1C[C@@H](c2nc(C#Cc3cc4ncn(C5CC5)c4cc3F)c3c(N)nccn23)C[C@@H]1COC [Example 203, 1-[(2R,4S)-4-{8-Amino-1-[2-(1-cyclopropyl-6-fluoro-1,3-benzodiazol-5-yl)ethynyl]imidazo[1,5-a]pyrazin-3-yl}-2-(methoxymethyl)pyrrolidin-1-yl]prop-2-en-1-one] | ≤ 100

Same assay, conditions: poly[Glu:Tyr] (4:1) 0.2 mg/ml, ATP 100 microM, 2 hr room temperature, given as numeric bound

Compound | IC50 [nM]
C=CC(=O)N1C[C@H](c2nc(C#Cc3cc4ncn(C5CC5)c4cc3F)c3c(N)ncnn23)C[C@@H]1COC [Example 198, 1-[(2R,4R)-4-{4-Amino-5-[2-(1-cyclopropyl-6-fluoro-1,3-benzodiazol-5-yl)ethynyl]imidazo[4,3-f][1,2,4]triazin-7-yl}-2-(methoxymethyl)pyrrolidin-1-yl]prop-2-en-1-one] | > 500
C=CC(=O)N1CC[C@H](c2nc(C#Cc3cc4ncn(C5CC5)c4cc3F)c3c(N)ncnn23)C1 [Example 200, (S)-1-(3-(4-Amino-5-((1-cyclopropyl-6-fluoro-1H-benzo[d]imidazol-5-yl)ethynyl)imidazo[5,1-f][1,2,4]triazin-7-yl)pyrrolidin-1-yl)prop-2-en-1-one] | > 500
C=CC(=O)N1C[C@H](c2nc(C#Cc3cc4ncn(C5CC5)c4cc3F)c3c(N)nccn23)C[C@@H]1COC [Example 202, 1-[(2R,4R)-4-{8-Amino-1-[2-(1-cyclopropyl-6-fluoro-1,3-benzodiazol-5-yl)ethynyl]imidazo[1,5-a]pyrazin-3-yl}-2-(methoxymethyl)pyrrolidin-1-yl]prop-2-en-1-one] | > 500
